Data taken from PubChem BioAssay (NCI).
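Dose response: 5 concentrations. Exposure: 48 h. Format: 96-well plates. Endpoint: linear interpolation; highest concentration if not reached. At the TGI there is no net growth.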

Assays:
Test in all cases: inhibition of tumour cell growth, NCI panel, 48 h
[1] = tested on: TK-10 renal
[2] = tested on: OVCAR-8 ovarian
[3] = tested on: BT-549 breast
[4] = tested on: CAKI-1 renal
[5] = tested on: 786-0 renal
[6] = tested on: SR leukemia
[7] = tested on: SF-268 CNS
[8] = tested on: RXF 393 renal
[9] = tested on: A549 NSCLC
[10] = tested on: MDA-MB-435
[11] = tested on: NCI-H226 lung
[12] = tested on: OVCAR-5 ovarian
[13] = tested on: HOP-92 NSCLC
[14] = tested on: DU-145 prostate
[15] = tested on: NCI-H460 lung
[16] = tested on: PC-3 prostate
[17] = tested on: UACC-62 melanoma
[18] = tested on: MDA-N
[19] = tested on: MALME-3M melanoma
[20] = tested on: HS 578T breast
[21] = tested on: EKVX NSCLC
[22] = tested on: U251 CNS
[23] = tested on: SK-MEL-5 melanoma
[24] = tested on: UACC-257 melanoma
[25] = tested on: SF-539 CNS
[26] = tested on: UO-31 renal
[27] = tested on: KM12 colon
[28] = tested on: NCI-H23 lung
[29] = tested on: HOP-62 NSCLC
[30] = tested on: HCC-2998 colon
[31] = tested on: COLO 205 colon
[32] = tested on: SNB-19 CNS
[33] = tested on: MOLT-4 leukemia
[34] = tested on: CCRF-CEM leukemia
[35] = tested on: HL-60(TB) leukemia
[36] = tested on: OVCAR-4 ovarian
[37] = tested on: T-47D breast
[38] = tested on: ACHN renal
[39] = tested on: HT29 colon
[40] = tested on: SW-620 colon
[41] = tested on: HCT-116 colon
[42] = tested on: HCT-15 colon
[43] = tested on: SF-295 CNS
[44] = tested on: LOX IMVI melanoma
[45] = tested on: SK-MEL-28 melanoma
[46] = tested on: SN12C renal
[47] = tested on: MDA-MB-231 breast
[48] = tested on: RPMI-8226 leukemia
[49] = tested on: SNB-75 CNS
[50] = tested on: OVCAR-3 ovarian
[51] = tested on: SK-OV-3 ovarian
[52] = tested on: SK-MEL-2 melanoma
[53] = tested on: NCI/ADR-RES ovarian
[54] = tested on: M14 melanoma
[55] = tested on: A498 renal
[56] = tested on: IGROV1 ovarian
[57] = tested on: K-562 leukemia
[58] = tested on: NCI-H522 lung
[59] = tested on: MCF7 breast

Work on COC1=CC(=O)c2c(cc(COP(N)(=O)N(CCCl)CCCl)n2C)C1=O (centres undefined) yielded a TGI [1] of 5.61 µM, a TGI [2] of 3.2 µM and a TGI [3] of 2.14 µM. It also gave a TGI [4] of less than 0.0478 µM, a TGI [5] of 10.9 µM and a TGI [6] of 1.31 µM. For the same compound, the TGI [7] was 2.34 µM, the TGI [8] was 2.95 µM and the TGI [9] was 4.31 µM. It also gave a TGI [10] of 3.2 µM, a TGI [11] of 1.32 µM and a TGI [12] of 4.21 µM. The TGI [13] was 6.66 µM, the TGI [14] was 5.71 µM and the TGI [15] was 4.31 µM. It also gave a TGI [16] of 10.1 µM, a TGI [17] of 2.16 µM and a TGI [18] of 4.09 µM. For the same compound, the TGI [19] was 3.15 µM, the TGI [20] was greater than 100 µM and the TGI [21] was 1.62 µM. It also gave a TGI [22] of 6.77 µM, a TGI [23] of 2.82 µM and a TGI [24] of 14.2 µM. The TGI [25] was 2.19 µM, the TGI [26] was 2.65 µM and the TGI [27] was 5.02 µM. For the same compound, the TGI [28] was 3.41 µM, the TGI [29] was 7.88 µM and the TGI [30] was 2.3 µM. It also gave a TGI [31] of 3.08 µM, a TGI [32] of 14.2 µM and a TGI [33] of 0.382 µM. The TGI [34] was 8 µM, the TGI [35] was 3.89 µM and the TGI [36] was 16.3 µM. For the same compound, the TGI [37] was 4.29 µM, the TGI [38] was 1.18 µM and the TGI [39] was 4.33 µM. The TGI [40] was 4.21 µM, the TGI [41] was 0.707 µM and the TGI [42] was 3.54 µM. For the same compound, the TGI [43] was 2.82 µM, the TGI [44] was 1.73 µM and the TGI [45] was 8.83 µM. It also gave a TGI [46] of 1.31 µM, a TGI [47] of 8.42 µM and a TGI [48] of 4.73 µM. The TGI [49] was 4.45 µM, the TGI [50] was 2.37 µM and the TGI [51] was 5.9 µM. For the same compound, the TGI [52] was 4.12 µM, the TGI [53] was 19.8 µM and the TGI [54] was 2.74 µM. For the same compound, the TGI [55] was 5.39 µM, the TGI [56] was 2.66 µM and the TGI [57] was 36.9 µM. For the same compound, the TGI [58] was 0.802 µM and the TGI [59] was 9.55 µM.
Compound Oc1cc(O)c2c(c1)O[C@H](c1cc(O)c(O)c(O)c1)[C@@H](O)C2 has a TGI [2] of 31.1 µM, a TGI [3] of 51.5 µM and a TGI [4] greater than 100 µM. For the same compound, the TGI [5] was 32.8 µM, the TGI [6] was 39.1 µM and the TGI [7] was 58.7 µM. It also gave a TGI [8] of 30.7 µM, a TGI [9] greater than 100 µM and a TGI [10] of 38.1 µM. The TGI [11] was 86.5 µM, the TGI [12] was 34.8 µM and the TGI [13] was greater than 10 µM. For the same compound, the TGI [14] was greater than 100 µM, the TGI [15] was 37.7 µM and the TGI [16] was 76.2 µM. For the same compound, the TGI [18] was 44.2 µM, the TGI [19] was greater than 100 µM and the TGI [20] was greater than 100 µM. The TGI [21] was 94.9 µM, the TGI [22] was 34.5 µM and the TGI [23] was 60.2 µM. It also gave a TGI [24] greater than 100 µM, a TGI [25] of 40.7 µM and a TGI [26] of 35.9 µM. For the same compound, the TGI [28] was 58.2 µM, the TGI [29] was 34 µM and the TGI [30] was greater than 10 µM. The TGI [31] was 35.8 µM, the TGI [32] was greater than 100 µM and the TGI [33] was greater than 10 µM. For the same compound, the TGI [34] was 43.4 µM, the TGI [35] was 45.4 µM and the TGI [36] was 48.7 µM. It also gave a TGI [37] of 68.7 µM, a TGI [38] of 48 µM and a TGI [40] of 32.7 µM. For the same compound, the TGI [41] was 33.2 µM, the TGI [42] was greater than 100 µM and the TGI [43] was 73.2 µM. For the same compound, the TGI [44] was 37.9 µM, the TGI [45] was greater than 100 µM and the TGI [46] was 33 µM. The TGI [47] was 34 µM, the TGI [48] was 43.9 µM and the TGI [49] was 38.7 µM. The TGI [50] was 46.6 µM, the TGI [51] was 74.7 µM and the TGI [52] was 64.8 µM. For the same compound, the TGI [53] was greater than 100 µM, the TGI [54] was 57.6 µM and the TGI [55] was greater than 100 µM. The TGI [56] was 38.9 µM, the TGI [57] was 38.2 µM and the TGI [58] was 35.1 µM. The TGI [59] was 35.2 µM.
